Test results reported in patent US10732169B2, “Personalized healthcare P4 drug monitoring system and method” (eNano Health Limited, priority 2016, dated 2020).

Experiments:
[1] = LC/MS, all subjects, FIG. 15
Protocol: In a third illustrative example, the detection of a HIV drug in saliva is conducted according to the claimed invention. […] Sample analysis hardware includes chromatography and mass spectrometry functionality and can additionally include genetic sequencing functionality.

[2] = Keppra levels in dried spot saliva samples over time after taking the drug, LC/MS; format: in vivo; conditions: two separate days, FIG. 14
Protocol: FIGS. 9 to 14 further illustrate the detection of Keppra in saliva. Levetiracetam (Trade Name: Keppra), is a medication used to treat epilepsy. In the illustrative example, the saliva specimens are collected on 2 separate days. On each day, subject is asked to collect blood/saliva samples before taking Keppra (time=0 hour), and after taking the drug (time=1, 2, 4, 8 hours). Saliva samples are collected in both liquid and dried spot forms. Blood samples are collected in dried spot form and are stored at room temperature before transportation for analytical laboratory analysis using LC/MS.
FIG. 13 is a graphical representation of Keppra levels using dried saliva comparatively measured. Graphical representation 1301 illustrates the comparison of dried saliva spot samples over two separate days.
FIG. 14 is a graphical representation of Keppra levels using dried saliva comparatively measured. The half-life of Keppra is known to be 5-8 hours. […] Consequently, dried spot saliva samples reliably reflect clearance of Keppra from the body according to the claimed invention.

[3] = known value; cited from earlier work

In the case of Nc1nc(=O)n([C@@H]2CS[C@H](CO)O2)cc1F [FTC], the “detection of drug fragment ion in saliva” value [1] is reported as “detection of the FTC fragment ion”.

In the case of CC[C@@H](C(N)=O)N1CCCC1=O [Keppra, Levetiracetam], the “time after which Keppra level depleted by half” value [2] is listed as 8 h and the half-life [3] is listed as 5 to 8 h.
